Assay results taken from PMC11971462, “Generation and validation of a novel multitarget small molecule in glioblastoma” (Cell Death & Disease, 2025).

System: GNS166 cells
Experiment: Label-free proteomics differential expression
Format: cell-based, human
Method: Proteomic studies were performed by the Proteomics Facility of the CIC bioGUNE by label-free relative quantification on nLC MS/MS. […] In both approaches, the top 20 enriched terms were plotted and the pathways were clustered using divisive hierarchical clustering based on pairwise Jaccard distances.

With `C#CCN(Cc1cc2cc(OCCCN3CCCCC3)ccc2n1S(=O)(=O)c1ccccc1)C(=O)CCCCCCC(=O)NO` [DDI] the “LogFC THG1_HUMAN” value (protein Q9NWX6) was -0.1726, the “Direction F120C_HUMAN” value (protein Q9NX05) was “Down” and the “LogFC F120C_HUMAN” value (protein Q9NX05) was -0.4931. The “Direction IMPA3_HUMAN” value (protein Q9NX62) was “Down”, the “LogFC IMPA3_HUMAN” value (protein Q9NX62) was -2.939 and the “Direction NSMA3_HUMAN” value (protein Q9NXE4) was “Down”. The “LogFC NSMA3_HUMAN” value (protein Q9NXE4) was -1.089, the “Direction TRM1_HUMAN” value (protein Q9NXH9) was “Down” and the “LogFC TRM1_HUMAN” value (protein Q9NXH9) was -1.158. For the same compound, the “Direction GTSE1_HUMAN” value (protein Q9NYZ3) was “Down”, the “LogFC GTSE1_HUMAN” value (protein Q9NYZ3) was -2.523 and the “Direction F120A_HUMAN” value (protein Q9NZB2) was “Down”. For the same compound, the “LogFC F120A_HUMAN” value (protein Q9NZB2) was -0.8566, the “Direction MYOF_HUMAN” value (protein Q9NZM1) was “Down” and the “LogFC MYOF_HUMAN” value (protein Q9NZM1) was -1.514. The “LogFC SPN90_HUMAN” value (protein Q9NZQ3 GN=NCKIPSD) was 0.408, the “LogFC H2AW_HUMAN” value (protein Q9P0M6 GN=MACROH2A2) was -2.056 and the “Direction RCC2_HUMAN” value (protein Q9P258) was “Down”. The “LogFC RCC2_HUMAN” value (protein Q9P258) was -0.788, the “Direction MO4L1_HUMAN” value (protein Q9UBU8) was “Down” and the “LogFC MO4L1_HUMAN” value (protein Q9UBU8) was -1.829. The “LogFC SE1L1_HUMAN” value (protein Q9UBV2 GN=SEL1L) was 1.64, the “Direction CSN7A_HUMAN” value (protein Q9UBW8) was “Down” and the “LogFC CSN7A_HUMAN” value (protein Q9UBW8) was -0.366. For the same compound, the “Direction QCR9_HUMAN” value (protein Q9UDW1) was “Down”, the “LogFC QCR9_HUMAN” value (protein Q9UDW1) was -1.3801 and the “Direction ABCF2_HUMAN” value (protein Q9UG63) was “Down”. The “LogFC ABCF2_HUMAN” value (protein Q9UG63) was -0.9684, the “LogFC SEC63_HUMAN” value (protein Q9UGP8 GN=SEC63) was -0.6574 and the “Direction Z3H7B_HUMAN” value (protein Q9UGR2) was “Down”. For the same compound, the “LogFC Z3H7B_HUMAN” value (protein Q9UGR2) was -0.582, the “Direction ABC3B_HUMAN” value (protein Q9UH17) was “Down” and the “LogFC ABC3B_HUMAN” value (protein Q9UH17) was -2.711. For the same compound, the “LogFC PCYOX_HUMAN” value (protein Q9UHG3 GN=PCYOX1) was 1.78, the “Direction DDX20_HUMAN” value (protein Q9UHI6) was “Down” and the “LogFC DDX20_HUMAN” value (protein Q9UHI6) was -1.492. The “LogFC NB5R1_HUMAN” value (protein Q9UHQ9 GN=CYB5R1) was 0.825, the “LogFC VATH_HUMAN” value (protein Q9UI12 GN=ATP6V1H) was 0.8971 and the “LogFC PRAF1_HUMAN” value (protein Q9UI14 GN=RABAC1) was -1.449. For the same compound, the “LogFC DDX41_HUMAN” value (protein Q9UJV9 GN=DDX41) was -0.9972, the “LogFC CDC23_HUMAN” value (protein Q9UJX2 GN=CDC23) was -0.6966 and the “Direction APC7_HUMAN” value (protein Q9UJX3) was “Down”. The “LogFC APC7_HUMAN” value (protein Q9UJX3) was -0.9681, the “LogFC NOCT_HUMAN” value (protein Q9UK39 GN=NOCT) was 0.6965 and the “LogFC CCNL1_HUMAN” value (protein Q9UK58 GN=CCNL1) was -1.514. For the same compound, the “LogFC BORG2_HUMAN” value (protein Q9UKI2 GN=CDC42EP3) was 1.338, the “LogFC DEN2A_HUMAN” value (protein Q9ULE3 GN=DENND2A) was -2.086 and the “Direction HEG1_HUMAN” value (protein Q9ULI3) was “Down”. The “LogFC HEG1_HUMAN” value (protein Q9ULI3) was -2.228, the “Direction PKHG1_HUMAN” value (protein Q9ULL1) was “Down” and the “LogFC PKHG1_HUMAN” value (protein Q9ULL1) was -2.254. For the same compound, the “Direction HECD1_HUMAN” value (protein Q9ULT8) was “Down”, the “LogFC HECD1_HUMAN” value (protein Q9ULT8) was -1.1597 and the “Direction TPX2_HUMAN” value (protein Q9ULW0) was “Down”. The “LogFC TPX2_HUMAN” value (protein Q9ULW0) was -2.6733, the “LogFC SYNRG_HUMAN” value (protein Q9UMZ2 GN=SYNRG) was 0.8469 and the “Direction MAGD2_HUMAN” value (protein Q9UNF1) was “Down”. For the same compound, the “LogFC MAGD2_HUMAN” value (protein Q9UNF1) was -1.225, the “Direction DIM1_HUMAN” value (protein Q9UNQ2) was “Down” and the “LogFC DIM1_HUMAN” value (protein Q9UNQ2) was -1.324. For the same compound, the “Direction CP131_HUMAN” value (protein Q9UPN4) was “Down”, the “LogFC CP131_HUMAN” value (protein Q9UPN4) was -0.9726 and the “Direction TRI33_HUMAN” value (protein Q9UPN9) was “Down”. For the same compound, the “LogFC TRI33_HUMAN” value (protein Q9UPN9) was -0.5693, the “LogFC BAIP2_HUMAN” value (protein Q9UQB8 GN=BAIAP2) was 0.1397 and the “LogFC AKAP2_HUMAN” value (protein Q9Y2D5 GN=AKAP2) was 0.8401. The “Direction WBP11_HUMAN” value (protein Q9Y2W2) was “Down”, the “LogFC WBP11_HUMAN” value (protein Q9Y2W2) was -1.003 and the “LogFC RM11_HUMAN” value (protein Q9Y3B7 GN=MRPL11) was -0.5878. The “Direction UFC1_HUMAN” value (protein Q9Y3C8) was “Down”, the “LogFC UFC1_HUMAN” value (protein Q9Y3C8) was -1.4452 and the “Direction FBX7_HUMAN” value (protein Q9Y3I1) was “Down”. The “LogFC FBX7_HUMAN” value (protein Q9Y3I1) was -0.6256, the “LogFC SAMH1_HUMAN” value (protein Q9Y3Z3 GN=SAMHD1) was 0.753 and the “LogFC TRRAP_HUMAN” value (protein Q9Y4A5 GN=TRRAP) was -1.346. The “Direction ARIP4_HUMAN” value (protein Q9Y4B4) was “Down”, the “LogFC ARIP4_HUMAN” value (protein Q9Y4B4) was -1.479 and the “LogFC IRS2_HUMAN” value (protein Q9Y4H2 GN=IRS2) was 2.2713. For the same compound, the “Direction TBL2_HUMAN” value (protein Q9Y4P3) was “Down”, the “LogFC TBL2_HUMAN” value (protein Q9Y4P3) was -0.6001 and the “LogFC NDK7_HUMAN” value (protein Q9Y5B8 GN=NME7) was 2.17. For the same compound, the “Direction PCDGH_HUMAN” value (protein Q9Y5G0) was “Down”, the “LogFC PCDGH_HUMAN” value (protein Q9Y5G0) was -2.292 and the “LogFC CD2AP_HUMAN” value (protein Q9Y5K6 GN=CD2AP) was 0.4294. For the same compound, the “LogFC BZW2_HUMAN” value (protein Q9Y6E2 GN=BZW2) was 0.8735, the “LogFC OAS3_HUMAN” value (protein Q9Y6K5 GN=OAS3) was -0.7466 and the “Direction WASF2_HUMAN” value (protein Q9Y6W5) was “Down”. For the same compound, the “LogFC WASF2_HUMAN” value (protein Q9Y6W5) was -1.033, the “Direction NS1BP_HUMAN” value (protein Q9Y6Y0) was “Down” and the “LogFC NS1BP_HUMAN” value (protein Q9Y6Y0) was -2.1021. The “LogFC S23IP_HUMAN” value (protein Q9Y6Y8 GN=SEC23IP) was 0.5141, the “Direction GLCNE_HUMAN” value (protein Q9Y223) was “Down” and the “LogFC GLCNE_HUMAN” value (protein Q9Y223) was -0.915. The “LogFC HPSE_HUMAN” value (protein Q9Y251 GN=HPSE) was 0.7253, the “Direction EIF3L_HUMAN” value (protein Q9Y262) was “Down” and the “LogFC EIF3L_HUMAN” value (protein Q9Y262) was -0.4083. The “Direction AAR2_HUMAN” value (protein Q9Y312) was “Down”, the “LogFC AAR2_HUMAN” value (protein Q9Y312) was -1.2504 and the “LogFC SKAP_HUMAN” value (protein Q9Y448 GN=KNSTRN) was -1.456. For the same compound, the “Direction TLN1_HUMAN” value (protein Q9Y490) was “Down”, the “LogFC TLN1_HUMAN” value (protein Q9Y490) was -0.5101 and the “LogFC PPME1_HUMAN” value (protein Q9Y570 GN=PPME1) was 1.066. The “LogFC FHOD1_HUMAN” value (protein Q9Y613 GN=FHOD1) was 1.204, the “LogFC JAM1_HUMAN” value (protein Q9Y624 GN=F11R) was 1.904 and the “Direction GPC6_HUMAN” value (protein Q9Y625) was “Down”. For the same compound, the “LogFC GPC6_HUMAN” value (protein Q9Y625) was -2.082, the “Direction S12A7_HUMAN” value (protein Q9Y666) was “Down” and the “LogFC S12A7_HUMAN” value (protein Q9Y666) was -2.1239. The “LogFC EM55_HUMAN” value (protein Q00013 GN=MPP1) was 0.8133, the “Direction NAA25_HUMAN” value (protein Q14CX7) was “Down” and the “LogFC NAA25_HUMAN” value (protein Q14CX7) was -1.1158. The “Direction PDS5A_HUMAN” value (protein Q29RF7) was “Down”, the “LogFC PDS5A_HUMAN” value (protein Q29RF7) was -1.029 and the “LogFC H1BP3_HUMAN” value (protein Q53T59 GN=HS1BP3) was 2.722. The “LogFC GL8D1_HUMAN” value (protein Q68CQ7 GN=GLT8D1) was -1.2539.
